The record followed here is US8080570B2, “α2B and α2C agonists” (Allergan, Inc., priority 2008, dated 2011).

Each structure is given as a SMILES string.

Common to all, as to type: cell-based
The target of one assay is T1, α1B (UniProt P35368).
T1 sequence (P35368 1-520): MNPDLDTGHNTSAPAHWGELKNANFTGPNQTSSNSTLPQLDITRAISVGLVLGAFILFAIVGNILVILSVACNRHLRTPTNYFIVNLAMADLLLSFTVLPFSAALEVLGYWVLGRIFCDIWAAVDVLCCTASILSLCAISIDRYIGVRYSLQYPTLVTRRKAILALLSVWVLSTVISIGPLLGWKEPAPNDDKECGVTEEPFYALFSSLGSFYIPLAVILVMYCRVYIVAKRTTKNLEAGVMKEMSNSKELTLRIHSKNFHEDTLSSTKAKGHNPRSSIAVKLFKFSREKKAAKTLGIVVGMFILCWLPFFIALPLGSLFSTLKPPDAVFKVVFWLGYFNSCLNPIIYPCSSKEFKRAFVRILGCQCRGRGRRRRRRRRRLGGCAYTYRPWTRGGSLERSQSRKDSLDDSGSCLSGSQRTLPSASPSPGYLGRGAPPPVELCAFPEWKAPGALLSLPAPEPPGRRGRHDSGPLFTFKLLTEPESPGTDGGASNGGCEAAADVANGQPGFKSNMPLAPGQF
Description: FLIPR intracellular calcium assay, α1B. The settings on record: for EC50: FLIPR, fluo-3 calcium, NA = not active, read-out: α1B potency (EC50); for α1B relative efficacy: value in parentheses, relative to a standard full agonist. The protocol: (§1) Selected examples were tested via the intracellular calcium assay known as Fluorometric Imaging Plate Reader (FLIPR) which involves the detection of calcium pulses by fluo-3 for analyzing function proximal to α1 receptor activation. […] The compound's activity is expressed as its relative efficacy compared to a standard full agonist.

The next assay concerns the target T2, α2C (Homo sapiens, UniProt P18825).
T2 sequence (P18825 1-462): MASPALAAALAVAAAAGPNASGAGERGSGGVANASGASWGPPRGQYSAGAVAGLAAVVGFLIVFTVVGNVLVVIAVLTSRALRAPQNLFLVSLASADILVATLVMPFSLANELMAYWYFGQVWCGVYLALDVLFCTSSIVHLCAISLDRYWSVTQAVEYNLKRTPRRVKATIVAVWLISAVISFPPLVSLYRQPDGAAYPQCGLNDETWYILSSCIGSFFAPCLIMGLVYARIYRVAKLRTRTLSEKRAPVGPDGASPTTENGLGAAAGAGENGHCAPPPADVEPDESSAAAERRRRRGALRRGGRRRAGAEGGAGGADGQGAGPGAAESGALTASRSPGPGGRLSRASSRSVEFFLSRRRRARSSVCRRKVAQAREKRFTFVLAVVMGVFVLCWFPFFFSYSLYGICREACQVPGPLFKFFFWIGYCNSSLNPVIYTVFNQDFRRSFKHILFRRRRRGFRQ
Description: FLIPR intracellular calcium assay, α2C. As to conditions: for EC50: read-out: α2C potency (EC50); for α2C relative efficacy: value in parentheses, relative to a standard full agonist. (In general: A change in cytosolic calcium serves as a functional read-out for many receptors and channels.)

The target in the next assay is T3, α2A (Homo sapiens, UniProt P08913).
T3 sequence (P08913 1-465): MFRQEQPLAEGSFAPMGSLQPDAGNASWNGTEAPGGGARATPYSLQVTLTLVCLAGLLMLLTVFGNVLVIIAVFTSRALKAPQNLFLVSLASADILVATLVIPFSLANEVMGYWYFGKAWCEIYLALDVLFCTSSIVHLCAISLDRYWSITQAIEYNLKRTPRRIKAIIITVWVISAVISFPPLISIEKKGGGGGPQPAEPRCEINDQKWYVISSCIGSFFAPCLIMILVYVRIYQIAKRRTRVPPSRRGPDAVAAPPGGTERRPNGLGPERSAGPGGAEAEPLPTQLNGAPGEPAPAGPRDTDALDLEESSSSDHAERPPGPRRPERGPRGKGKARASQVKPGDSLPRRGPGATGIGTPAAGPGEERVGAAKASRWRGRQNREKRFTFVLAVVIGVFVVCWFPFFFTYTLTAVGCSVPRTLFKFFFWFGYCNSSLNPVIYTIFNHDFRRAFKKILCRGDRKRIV
Description: FLIPR intracellular calcium assay, α2A. The settings on record: for EC50: FLIPR, fluo-3 calcium, NA = not active, read-out: α2A potency (EC50); for α2A relative efficacy: value in parentheses, relative to a standard full agonist.

A further assay addresses T4, α1A (UniProt P35348).
T4 sequence (P35348 1-466): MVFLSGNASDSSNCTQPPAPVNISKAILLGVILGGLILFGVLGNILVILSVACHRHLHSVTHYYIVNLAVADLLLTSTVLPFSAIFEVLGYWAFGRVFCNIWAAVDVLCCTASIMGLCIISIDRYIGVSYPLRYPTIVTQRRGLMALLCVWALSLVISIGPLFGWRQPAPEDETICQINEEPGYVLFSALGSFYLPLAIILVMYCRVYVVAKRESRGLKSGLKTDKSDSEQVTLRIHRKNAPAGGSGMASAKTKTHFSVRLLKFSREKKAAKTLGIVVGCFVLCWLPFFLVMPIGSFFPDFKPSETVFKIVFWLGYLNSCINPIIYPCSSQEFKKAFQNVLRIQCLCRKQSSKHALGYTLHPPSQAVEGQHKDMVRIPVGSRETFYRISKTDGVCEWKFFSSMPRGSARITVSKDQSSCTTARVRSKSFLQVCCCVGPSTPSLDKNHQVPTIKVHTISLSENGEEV
In words: FLIPR intracellular calcium assay, α1A. The settings on record: for EC50: FLIPR, fluo-3 calcium, NA = not active, read-out: α1A potency (EC50); for α1A relative efficacy: value in parentheses, relative to a standard full agonist. The protocol:
as §1

A further assay has as its target T5, α2B (Homo sapiens, UniProt P18089).
T5 sequence (P18089 1-450): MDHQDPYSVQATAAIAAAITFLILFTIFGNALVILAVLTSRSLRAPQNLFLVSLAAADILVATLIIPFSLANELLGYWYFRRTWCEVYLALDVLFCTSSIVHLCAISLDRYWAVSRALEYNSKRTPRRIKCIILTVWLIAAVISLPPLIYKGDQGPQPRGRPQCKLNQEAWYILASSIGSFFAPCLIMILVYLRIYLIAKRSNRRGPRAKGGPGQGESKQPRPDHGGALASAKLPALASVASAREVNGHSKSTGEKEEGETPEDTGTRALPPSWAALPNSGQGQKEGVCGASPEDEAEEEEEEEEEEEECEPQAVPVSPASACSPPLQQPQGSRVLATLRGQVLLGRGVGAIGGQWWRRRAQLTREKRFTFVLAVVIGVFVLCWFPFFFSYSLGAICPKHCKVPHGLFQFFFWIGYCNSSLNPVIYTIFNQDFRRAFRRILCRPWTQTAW
In words: FLIPR intracellular calcium assay, α2B. The settings on record: for EC50: FLIPR, fluo-3 calcium, NA = not active, read-out: α2B potency (EC50); for α2B relative efficacy: value in parentheses, relative to a standard full agonist.

The mark [1] stands for this setting: FLIPR, fluo-3 calcium, NA = not active.

With `C#CC(C)NC1=NCCO1` (stereo not drawn), the concentration giving a half-maximal response (EC50) (in general, the concentration that produces a half-maximal response) at α1B is over 10000 nM; at α2C (setting [1]), 34.6 nM; at α2A it was 4050 nM; on α1A, over 10000 nM; at α2B it was 413 nM. For the same compound, on α2C, the α2C relative efficacy came out at 0.89. Besides, the α2A relative efficacy on α2A is recorded as 0.20. Further, the α2B relative efficacy on α2B was determined as 0.77.
In the case of `C#CC(CC)NC1=NCCO1` (stereo not drawn), at α2C (setting [1]), the EC50 stood at 0.004 nM. Also, the α2C relative efficacy on α2C worked out at 0.87. For the same compound, on α2A, the EC50 was determined as 54.7 nM and the α2A relative efficacy stood at 0.74. Further, at α1A, the EC50 stood at 6540 nM and the α1A relative efficacy is on record as 0.78. Moreover, at α2B, the half-maximal effective concentration (EC50) is 91.5 nM and the α2B relative efficacy is on record as 0.82.
`C#CC(CCC)NC1=NCCO1` (stereo not drawn): the EC50 on α1B was over 10000 nM; at α2C (setting [1]) it was 65 nM; at α2A, 664 nM; on α1A it was 3030 nM; on α2B, 386 nM. The α2C relative efficacy at α2C came out at 0.99. For the same compound, on α2A, the α2A relative efficacy came out at 0.44. The α1A relative efficacy at α1A was 0.72. The α2B relative efficacy on α2B is 0.68.
Turning to `C#CC(CC(C)C)NC1=NCCO1` (stereo not drawn), the concentration for a half-maximal effect (EC50) is over 10000 nM at α1B; 18.3 nM at α2C (setting [1]); over 10000 nM on α2A; 7370 nM on α1A; 331 nM at α2B. Moreover, on α2C, the α2C relative efficacy worked out at 0.98. Moreover, the α1A relative efficacy on α1A worked out at 0.59. Besides, the α2B relative efficacy at α2B is reported as 0.48.
`C#CC(NC1=NCCO1)c1ccccc1` (stereo not drawn): the α2C relative efficacy result at α2C was “Potent (0.82)”. For the same compound, the α2A relative efficacy on α2A is listed as 0.04 (0.82). The α1A relative efficacy on α1A is recorded as 0.58 (0.92). Further, the α2B relative efficacy at α2B is 1.12 (0.61).
For the compound `C#C[C@H](NC1=NCCO1)C(C)C`, at α1B, the EC50 came out at 5940 nM and the α1B relative efficacy is reported as 0.28. In addition, on α2C (setting [1]), the “α2C potency (EC50)” value is “Potent”. Further, the α2C relative efficacy on α2C amounted to 1.02. At α2A, the EC50 came to 16.9 nM and the α2A relative efficacy is 0.85. Besides, on α1A, the half-maximal effective concentration (EC50) worked out at 1200 nM and the α1A relative efficacy worked out at 0.93. Moreover, on α2B, the half-maximal effective concentration (EC50) amounted to 64 nM and the α2B relative efficacy came to 0.88.
As to `C#CC(NC1=NCCO1)C1CC1` (stereo not drawn), the EC50 is over 10000 nM on α1B, 127 nM on α2C (setting [1]), 298 nM on α2A and 354 nM at α2B. Also, the α2C relative efficacy at α2C is reported as 0.89. Besides, the α2A relative efficacy at α2A amounted to 0.41. Moreover, the α2B relative efficacy on α2B stood at 0.71.
Turning to `C#CC(NC1=NCCO1)c1ccccc1Br` (stereo not drawn), the concentration giving a half-maximal response (EC50) is over 10000 nM on α1B; 295 nM on α2C (setting [1]); over 10000 nM on α2A; 1650 nM on α1A; 361 nM at α2B. For the same compound, the α2C relative efficacy at α2C is reported as 0.81. Also, at α1A, the α1A relative efficacy is 0.34. Besides, on α2B, the α2B relative efficacy is given as 0.36.
With `N#CC(NC1=NCCO1)c1ccccc1` (stereo not drawn), the EC50 on α2C (setting [1]) was found to be 158 nM; on α2A, 588 nM; at α1A it was 1140 nM; at α2B it was 215 nM. Moreover, on α2C, the α2C relative efficacy was found to be 0.76. Also, at α2A, the α2A relative efficacy stood at 0.42. For the same compound, the α1A relative efficacy on α1A was determined as 0.99. Moreover, the α2B relative efficacy at α2B stood at 0.56.
As for `C#CC(NC1=NCCO1)c1cccc(F)c1F` (stereo not drawn), on α1B, the 50% effective concentration (EC50) was 3510 nM and the α1B relative efficacy stood at 0.54. At α2C (setting [1]), the EC50 amounted to 6.01 nM. For the same compound, the α2C relative efficacy on α2C amounted to 0.88. For the same compound, on α2A, the EC50 turned out to be 30 nM and the α2A relative efficacy was found to be 0.79. For the same compound, at α1A, the EC50 came to 40.8 nM and the α1A relative efficacy turned out to be 0.96. On α2B, the EC50 worked out at 25.9 nM and the α2B relative efficacy is listed as 0.50.
In the case of `C#CC(NC1=NCCO1)c1cccc(Cl)c1` (stereo not drawn), the EC50 at α1B turned out to be 5360 nM; on α2C (setting [1]), 382 nM; on α2A, 80.5 nM; on α1A it was 410 nM; at α2B it was 218 nM. The α1B relative efficacy on α1B amounted to 0.24. For the same compound, the α2C relative efficacy on α2C is listed as 0.78. The α2A relative efficacy on α2A is listed as 0.88. In addition, the α1A relative efficacy at α1A was found to be 0.81. Moreover, the α2B relative efficacy at α2B is 0.56.
